The text below walks through data of patent publication US11125741B2, “Compositions and methods for the detection of zinc” (Northwestern University, priority 2012, dated 2021).

For experiment [1] the following is noted: Gee et al. 2002; cited from earlier work.
Experiment [2] relates to mouse eggs. Put plainly: Time-lapse imaging of zinc sparks and calcium transients in parthenogenetically activated eggs. The class given is cell-based. The procedure:
Time-lapse imaging of parthenogenetically activated eggs. Eggs were first incubated in 10 μM Calcium Green-1 AM (Invitrogen) and 0.04% (w/v) Pluronic F-127 (Invitrogen) for either 30 min (mouse) or 60 min (non-human primate) at 37° C. Mouse eggs were washed in calcium-free KSOM (Millipore) and transferred to a 50 μl drop containing 10 mM SrCl2 (Sigma-Aldrich) and 50 μM FluoZin-3 (Invitrogen) on a glass-bottom dish (Bioptechs Inc.). Non-human primate eggs were transferred to one end of a long and shallow drop (20 μl) of calcium-free KSOM (Millipore) containing 50 μM FluoZin-3 (Invitrogen) on a glass-bottom dish (Bioptechs Inc.), covered with oil for embryo culture (Irvine Scientific, Santa Ana, Calif.). Ionomycin was perfused in at the opposite end to a final concentration of 20 μM. In both cases, image acquisition began immediately and occurred every 4 s for a total of 1-3 hours (mouse) or 15 min (non-human primate), unless noted otherwise. All images were acquired on a TCS SP5 confocal microscope (Leica Microsystems) equipped with a stage top incubator (Tokai Hit), 20× objective, and an Ar (488 nm) laser line.
Additional experiments were consistent with this determination. […] Second, zinc sparks were absent in eggs treated with the membrane permeable acetoxymethyl ester (AM) derivative of 1,2-bis(o-aminophenoxy)ethane-N,N,N′,N′-tetraacetic acid (BAPTA).
The polarization of the zinc-enriched vesicles mirrors that of the cortical granules (CG), which are exocytic vesicles that participate in the cortical reaction, which involves the hardening of the zona pellucida to establish a block to polyspermy at fertilization (Ducibella. (1996) Hum Reprod Update 2, 29-42.; herein incorporated by reference in its entirety). […] In most cases, subsequent sparks were inhibited (SEE FIG. 9). Experiments conducted during development of embodiments of the present invention indicate that zinc-containing vesicles are pre-fused with the egg membrane, allowing the first spark to occur even in the presence of CytoB. This type of phenomenon has been described for cortical granules in the sea urchin egg, where one subset of CGs are in a hemifused state prior to activation21.

For experiment [3] the following is noted: pM reflects the log of the free ion concentration; cited from earlier work.
The test system of experiment [4] is mouse eggs. The experiment in a line: TPEN treatment and spindle imaging of mouse eggs. The class given is cell-based. The settings on record: 10 μM, 8 hrs of culture. The procedure: FIGS. 12a-e show perturbation of intracellular zinc availability causes activation of the egg. Following 8 hours of culture, control eggs maintain a metaphase II spindle (a, sp) with individual chromosomes aligned at the metaphase plate (b). In contrast, eggs exposed to 10 μM TPEN for the same period artificially activate as indicated by the formation of an intact pronucleus (c, pn) with decondensed chromatin surrounding a nucleolus (d).
TPEN treatment and spindle imaging of mouse eggs. Superovulated eggs were collected and transferred to KSOM medium (Millipore) with or without 10 μM TPEN and cultured up to 8 hrs at 37° C. in an atmosphere of 5% CO2 in air. […] Eggs were fixed and permeabilized for 30 min at 37° C. in a solution containing 2% formaldehyde, 2% Triton X-100, 100 mM PIPES, 5 mM MgCl2, and 2.4 mM EGTA. Eggs were then washed and blocked for 1-3 hrs in 1× PBS containing 0.1 M glycine, 3 mg/mL BSA, 0.01% Tween-20, and 0.01% sodium azide followed by incubation with […] (1:100, Sigma) in blocking buffer for 1 hr at 37° C. Eggs were washed again in blocking buffer, incubated in Alexa Fluor 488-conjugated goat anti-mouse IgG (Invitrogen) and rhodamine-phalloidin conjugate (Invitrogen) at 37° C. for 1 hr, washed three additional times, and mounted on microscopy slides with coverslips in Vectashield with DAPI. […]

The test system of experiment [5] is activated mouse eggs. The settings on record: 10 μM, 10 min at 1.5 hpa.
The mark [6] stands for this setting: treated prior to strontium chloride activation.

Take `COc1ccc(N(CC(=O)O)CC(=O)O)c(OCCOc2cc(-c3c4cc(F)c(=O)cc-4oc4cc(O)c(F)cc34)ccc2NCC(=O)O)c1` [FluoZin-3]: the “fluorescence turn-on for Zn” value in experiment [1] is 80 fold.

Regarding `C=C1[C@@H](C)[C@H]2[C@H](Cc3ccccc3)NC(=O)[C@]23OC(=O)/C=C/[C@H](O)CCC[C@@H](C)C/C=C/[C@H]3[C@@H]1O` [CytoB, cytochalasin B], in experiment [2] (setting [6]), the “calcium oscillations upon activation” value is reported as “normal calcium oscillations” and the “zinc sparks upon activation” value was “only exhibit a single zinc spark”.

As to `CCOC(=O)COc1cc(NS(=O)(=O)c2ccc(C)cc2)c2nc(C)ccc2c1` [zinquin ethyl ester], in experiment [3], the pM value is 9.3.

On to `c1ccc(CN(CCN(Cc2ccccn2)Cc2ccccn2)Cc2ccccn2)nc1` [TPEN], for which, in experiment [4], the “egg activation (pronucleus-like structure)” value is recorded as “had a pronucleus-like structure at significantly higher rates”. For the same compound, the “zinc sparks in zinc-insufficient eggs” value in experiment [2] (oocytes treated during in vitro maturation, then activated) was “did not undergo zinc sparks”.

Consider `CC(=O)OCOC(=O)CN(CC(=O)OCOC(C)=O)c1ccccc1OCCOc1ccccc1N(CC(=O)OCOC(C)=O)CC(=O)OCOC(C)=O` [BAPTA AM], for which the “parthenogenetic activation on long-term exposure” value in experiment [2] (10 μM) is listed as “did not parthenogenetically activate eggs”. Further, in experiment [2] (extended culture in strontium chloride), the “calcium transients and zinc sparks” value is “both calcium transients and zinc sparks were absent”. For the same compound, the “second polar body extrusion and pronucleus formation” value in experiment [2] (strontium chloride activation) was “did not extrude a second polar body or form a pronucleus”.

With zinc pyrithione [ZnPT], the “eggs lacking a pronucleus with aligned chromosomes” value in experiment [5] is “eighty-four”. In addition, the “eggs that formed a pronucleus” value in experiment [5] (scored 6-8 hpa) is recorded as “seventeen”.

Turning to carbonic anhydrase, the pM value in experiment [3] is reported as 12.4.
